In the test the target is T1, RPS6KA6 (RSK4) (Homo sapiens, UniProt Q9UK32).
T1 construct: purchased Thermo Fisher Scientific (Life Technologies) SelectScreen
Kind of test: SelectScreen Z'LYTE. It is filed as biochemical. In short, it runs like this:
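SelectScreen broad panel; activity (Z'LYTE, Adapta) plus binding formats. ATP: Km app for CSF1R Z'LYTE; 10 for CAMK1 Adapta. Readout = % per kinase.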

T1 sequence (Q9UK32 whole entry): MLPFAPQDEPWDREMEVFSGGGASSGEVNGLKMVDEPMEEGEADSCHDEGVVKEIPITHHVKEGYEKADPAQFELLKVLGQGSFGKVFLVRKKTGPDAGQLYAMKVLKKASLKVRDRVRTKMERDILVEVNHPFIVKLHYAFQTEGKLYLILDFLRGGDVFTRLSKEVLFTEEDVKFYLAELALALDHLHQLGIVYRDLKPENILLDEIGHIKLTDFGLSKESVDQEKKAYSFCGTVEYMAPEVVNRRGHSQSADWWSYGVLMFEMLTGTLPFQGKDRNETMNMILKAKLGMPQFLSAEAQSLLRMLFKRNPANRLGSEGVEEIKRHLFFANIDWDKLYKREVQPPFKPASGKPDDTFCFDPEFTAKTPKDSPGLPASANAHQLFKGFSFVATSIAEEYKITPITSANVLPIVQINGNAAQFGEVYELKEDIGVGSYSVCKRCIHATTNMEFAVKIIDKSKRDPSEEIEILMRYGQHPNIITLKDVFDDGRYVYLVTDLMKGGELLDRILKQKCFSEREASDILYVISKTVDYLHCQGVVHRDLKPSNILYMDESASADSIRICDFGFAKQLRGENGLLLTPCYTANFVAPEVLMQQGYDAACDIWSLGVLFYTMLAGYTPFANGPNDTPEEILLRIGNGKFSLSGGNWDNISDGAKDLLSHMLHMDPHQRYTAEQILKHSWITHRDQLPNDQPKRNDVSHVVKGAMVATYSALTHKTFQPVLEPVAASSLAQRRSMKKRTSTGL

In the case of `CN(C(=O)CN1CCOCC1)c1ccc2sc3c(-c4cccc5c(=O)cc(N6CC7CCC(C6)O7)oc45)cccc3c2c1` [NU5455], 1 µM produced 3.8% inhibition.
